Laboratory results as given in patent US6861529B2, “Cycloalkypyrrole-3-carboxylic acid derivatives and heterocycloalkylpyrrole-3-carboxylic acid derivatives” (Pfizer Inc, priority 2001, dated 2005).

Target: benzodiazepine site of the GABAA receptor
Experiment: Binding assay (3H-Ro15-1788 displacement, rat cortical tissue homogenate)
Conditions: 0.5 nM 3H-Ro15-1788 [3H-Flumazenil], 30 min at 4° C., Cheng-Prussof equation

Structure (SMILES) | Ki
CN1CC2CCc3[nH]cc(C(=O)Nc4ccccn4)c3C(=O)C2C1 (stereo not drawn) [Example 8, 6-Methyl-4-oxo-4,4a,5,6,7,7a,8,9-octahydro-1H-1,6-diaza-cyclopenta[f]azulene-3-carboxylic acid pyridin-2-ylamide] | 8 nM
O=C(Nc1ccccn1)c1c[nH]c2c1C(=O)CC(c1ccc(F)cc1)CC2 (stereo not drawn) [Example 4, 6-(4-Fluoro-phenyl)-4-oxo-1,4,5,6,7,8-hexahydrocyclohepta[b]pyrrole-3-carboxylic acid pyridin-2-ylamide] | 7 nM
O=C(Nc1ccccn1)c1c[nH]c2c1C(=O)C1CN(Cc3ccccc3)CC1CC2 (stereo not drawn) [Example 6, 6-Benzyl-4-oxo-4,4a,5,6,7,7a,8,9-octahydro-1H-1,6-diaza-cyclopenta[f]azulene-3-carboxylic acid pyridin-2-ylamide] | 4 nM
CN(C)CC1CCc2[nH]cc(C(=O)Nc3ccccn3)c2C(=O)C1 (stereo not drawn) [Example 9, 6-Dimethylaminomethyl-4-oxo-1,4,5,6,7,8-hexahydro-cyclohepta[b]pyrrole-3-carboxylic acid pyridin-2-ylamide] | 23 nM
O=C(Nc1ccccn1)c1c[nH]c2c1C(=O)C1CNCC1CC2 (stereo not drawn) [Example 7, 4-Oxo-4,4a,5,6,7,7a,8,9-octahydro-1H-1,6-diaza-cyclopenta[f]azulene-3-carboxylic acid pyridin-2-ylamide] | 7 nM
CC(C)C1CCc2[nH]cc(C(=O)Nc3ccccn3)c2C(=O)C1 (stereo not drawn) [Example 3, 6-Isopropyl-4-oxo-1,4,5,6,7,8-hexahydro-cyclohepta[b]pyrrole-3-carboxylic acid pyridin-2-ylamide] | 1 nM
O=C(Nc1ccccn1)C1C=NC2=C1C(Nc1ccccn1)CCCC2 (stereo not drawn) [Example 10, 4-(Pyridin-2-ylamino)-3,4,5,6,7,8-hexahydro-cyclohepta[b]pyrrole-3-carboxylic acid pyridin-2-ylamide] | 24 nM
COc1ccc(C2CCc3[nH]cc(C(=O)Nc4ccccn4)c3C(=O)C2)cc1F (stereo not drawn) [Example 5, 6-(3-Fluoro-4-methoxy-phenyl)-4-oxo-1,4,5,6,7,8-hexahydro-cyclohepta[b]pyrrole-3carboxylic acid pyridin-2-ylamide] | 8 nM
CC1CCc2[nH]cc(C(=O)Nc3ccccn3)c2C(=O)C1 (stereo not drawn) [Example 2, 6-Methyl-4-oxo-1,4,5,6,7,8-hexahydro-cydohepta[b]pyrrole-3-carboxylic acid pyridin-2-ylamide] | 2 nM
